In patent publication US20200325178A1, “PEPTIDE NUCLEIC ACID MOLECULES FOR TREATMENT OF GRAM POSITIVE BACTERIAL INFECTION” (priority 2017, published 2020):

How the values were obtained:
[1] = Single ascending intravenous dose tolerability (MTD) in mice; format: in vivo; conditions: 10 mg/kg single intravenous bolus dose
Procedure: Single ascending intravenous (IV) dose study was performed to determine tolerability of the drug in mice.
Initially, Compound I-HCl and Compound IV-HCl were administered with a 10 mg/kg intravenous bolus dose using a 10 mL/kg dose volume (0.2 mL) and observed the effects before proceeding to the next higher dose. […] However, higher concentration (>15 mg/kg) had shown adverse effect and death in mice within 30 mins of administration of the drug.

MSSA = assay: In vitro assay of emergence of resistance, MSSA, 8 days; format: cell-based, S. aureus; conditions: 6.25 μg (twice MBC) in one ml Mueller Hinton broth, 37° C., through Day 8
Procedure: (§1) To determine the development of resistance in MRSA and MSSA strains against Compound I-HCl and Compound IV-HCl, an in vitro assay was performed. Twice the amount of MBC of Compound I-HCl (6.25 μg) and Compound IV-HCl (6.25 μg) were mixed with ˜5.0 log 10 CFUs in one ml of Mueller Hinton broth and incubated for 8 days at 37° C. Eight tubes of culture were used for each drug and bacterial strains. At 24 hours of interval, culture tubes were centrifuged and spent media were replaced with fresh media in presence of Compound I-HCl and Compound IV-HCl and further incubated to observe the growth of S. aureus strains. At 24 hours interval, one set of culture tube exposed to drugs were selected and a fraction of the culture used to plate on agar plates to observe the reduction of CFU counts as compared to untreated control. The rest of the culture samples were allowed to grow without any drug for additional 24 hours to observe the growth of S. aureus strains. One set of culture tubes without drug was used as the positive control.
The assays above were also performed using MSSA strains and Compounds I and IV.

MRSA = assay: In vitro assay of emergence of resistance, MRSA, 8 days; format: cell-based, S. aureus; conditions: 6.25 μg (twice MBC) in one ml Mueller Hinton broth, 37° C., through Day 8
Procedure: as §1

Q: Which results are given for “Compound I: PNA-CPP conjugate: PNA cgt cat acg cgg tcc (SEQ ID NO: 51), AEEA linker, CPP BXRXRRXRRXRRXR; FIG. 1 (CGTCATACGCGGTCC; all peptide nucleic acid (PNA); cell-penetrating peptide attached via AEEA linker, further chemistry not fully specified)”?
A: tolerability in mice [1]: well tolerated; MSSA CFU counts and emergence of resistant strains (MSSA): reduced MSSA CFUs without emergence of resistant strains; MRSA CFU counts and emergence of resistant strains (MRSA): reduced MRSA CFUs without emergence of resistant strains
